Series [1] in a line: Gravimetric Vapour Sorption (GVS). The class given is physicochemical. The settings on record: after the full sorption/desorption cycle.
Series [2] can be described thus: Thermodynamic Aqueous Solubility by HPLC. The class given is physicochemical. The settings on record: water, 25° C. On the procedure:
Aqueous solubility was determined by suspending sufficient compound in water to give a maximum final concentration of ≧10 mg·ml^−1 of the parent free-form of the compound. The suspension was equilibrated at 25° C. for 24 hours then the pH was measured. The suspension was then filtered through a glass fibre C filter into a 96 well plate. The filtrate was then diluted by a factor of 101. Quantitation was by HPLC with reference to a standard solution of approximately 0.1 mg·ml^−1 in DMSO. Different volumes of the standard, diluted and undiluted sample solutions were injected. The solubility was calculated using the peak areas determined by integration of the peak found at the same retention time as the principal peak in the standard injection.
Analysis was performed on an Agilent HP1100 series system equipped with a diode array detector and using ChemStation software vB.02.01-SR1.

The conditions of series [3]: rat, in vivo, po.
The test system of series [4] is allergen-induced early and late phases of lung-volume decline. The settings on record: clinical trials; cited from earlier work.
Series [5] concerns whole blood ionophore-stimulated leukotriene LTB4. Nature of the series: Phase I study, whole blood ionophore-stimulated LTB4. The class given is in vivo, human. The text has this: Study Design: Single center, double-blind, randomized, placebo-controlled, single ascending dose followed by multiple ascending dose study.
Sample Size: (1) Single Dose Phase: eight (8) subjects (6 active, 2 placebo) per dose level; up to 5 dose levels are planned (a total of 40 subjects if all 5 dose levels are completed); and (2) Multiple Dose Phase: eight (8) subjects (6 active, 2 placebo) per dose level; up to 4 dose levels are planned (a total of 32 subjects if all 4 dose levels are completed).
Formulations: Compound 2 was supplied as an oral powder for reconstitution. Placebo solution matched. […] The placebo differed only in the absence of the active.
The following dosing cohorts were used:
Routes of Administration: All doses were administered orally with approximately 100 mL of water rinse. Subjects were fasted for at least 8 hours prior to dosing and for 2 hours after dosing. For BID dosing in the Multiple Dose Phase, when applicable, subjects were fasted for at least 2 hours prior to the second daily dose.
Plasma concentrations of Compound 1 were determined using a validated LC/MS method. Whole blood ionophore-stimulated leukotriene LTB4 and urinary LTE4 production were assayed by ELISA and mass spectrometry, respectively.
Analysis of Samples: Concentrations of Compound 1 was determined in plasma samples collected from subjects. Similarly, concentrations of LTB4 in plasma and urinary LTE4 were determined in blood and urine samples collected.

Series [6] can be described thus: Liquid formulations (oral solutions/suspensions). The note with it: certain solvent systems, below pH values of about 9-10. The class given is physicochemical. On the procedure:
Values of pH reported were estimated based on pH indicating strips. […] Accordingly, provided in certain embodiments herein were formulations having a pH above about 9, above about 10 or of about 10. In certain embodiments, the formulation was buffered at a pH of about 10. All formulations prepared were sonicated for about 10 minutes.

The test system of series [7] is chronic asthma. The settings on record: clinical studies; cited from earlier work.

≈ marks a conversion by molar mass, not a printed value.

Regarding `CCOc1ccc(-c2ccc(Cn3c(CC(C)(C)C(=O)[O-])c(SC(C)(C)C)c4cc(OCc5ccc(C)cn5)ccc43)cc2)cn1.[Na+]` [Amorphous Phase A], the “XRPD pattern after the GVS experiment” value in series [1] is “No changes were observed”. Further, the “Appearance of mixture after equilibration for 24 hours” value in series [2] is on record as “Suspension”. Also, the “Concentration of filtrate (as mg/mL of free base)” value in series [2] (24 hours, listed as Compound 2 Phase A) is listed as >10 mg/mL. Further, in series [3], the plasma exposures result is on record as “equivalent plasma exposures”.

Consider `O=C(O)[C@@H](c1ccc(OCc2ccc3ccccc3n2)cc1)C1CCCC1` [BAYX-1005], for which, in series [4], the “efficacy in allergen-challenge studies (allergen-induced early and late phases of lung-volume decline)” value (shortened to “efficacy in allergen-challenge studies”) was “show efficacy”.

`CCOc1ccc(-c2ccc(Cn3c(CC(C)(C)C(=O)O)c(SC(C)(C)C)c4cc(OCc5ccc(C)cn5)ccc43)cc2)cn1` [Compound 1, 3-[3-(tert-butylsulfanyl)-1-[4-(6-ethoxy-pyridin-3-yl)benzyl]-5-(5-methyl-pyridin-2-yl-methoxy)-1H-indol-2-yl]-2,2-dimethylpropanoic acid]: in series [5] (Homo sapiens, dose range studied, read-out: EC50, plasma concentration vs inhibition of ionophore-stimulated LTB4 production), the EC50 is ~0.07 µg/mL (≈ 0.11 µM). Besides, in series [5] (Homo sapiens, dose range studied, read-out: EC90, plasma concentration vs inhibition of ionophore-stimulated LTB4 production), the EC90 was ~0.32 µg/mL (≈ 0.502 µM). Moreover, the “plasma concentration at which complete inhibition of ionophore-stimulated LTB4 production was reached” value in series [5] (in vivo) lay within 1000 to 1500 ng/mL. Further, the solubility in words entry in series [6] is “sparingly soluble”.

Take `CC(C)(C)Sc1c(CC(C)(C)C(=O)O)n(Cc2ccc(Cl)cc2)c2ccc(OCc3ccc4ccccc4n3)cc12` [MK-0591]: in series [7], the “efficacy in chronic asthma” value is reported as “shows efficacy”. For the same compound, the “efficacy in allergen-challenge studies” value in series [4] is on record as “show efficacy”.

As for `CC(C)c1ccc2c(c1)c(SC(C)(C)C)c(CC(C)(C)C(=O)O)n2Cc1ccc(Cl)cc1` [MK-866], the “efficacy in allergen-challenge studies” value in series [4] was “show efficacy”.

Consider `CC(c1cc2ccccc2s1)N(O)C(N)=O` (centres unmarked) [Zileuton, zileuton], for which the “efficacy in chronic asthma” value in series [7] is reported as “exhibits clinical efficacy”. Besides, in series [4], the “efficacy in allergen-challenge studies” value was “not effective”.

Values taken from patent US20110160249A1, “5-LIPOXYGENASE-ACTIVATING PROTEIN INHIBITOR” (priority 2008, published 2011).
